Results: US20250108048A1, “STING AGONIST COMPOUNDS AND CONJUGATES” (SUTRO BIOPHARMA, INC., priority 2023, published 2025)
Read-outs that look alike come from different tables or passages of the source.

Experiments:
hSTING-R232 = target: T1, hSTING-R232 (Homo sapiens, UniProt Q86WV6, H232R); assay: THP1-Dual KI-hSTING-R232 reporter assay (IRF pathway, secreted Lucia luciferase); assay type: cell-based; conditions: THP1-Dual KI-hSTING-R232 cells, 24 hours; read-out: Reporter assay EC50 (nM) THP-1-R232
T1 construct: host or cells: THP1-Dual KI-hSTING-R232 (from THP1-Dual KO-STING)
T1 sequence (Q86WV6 whole entry H232R): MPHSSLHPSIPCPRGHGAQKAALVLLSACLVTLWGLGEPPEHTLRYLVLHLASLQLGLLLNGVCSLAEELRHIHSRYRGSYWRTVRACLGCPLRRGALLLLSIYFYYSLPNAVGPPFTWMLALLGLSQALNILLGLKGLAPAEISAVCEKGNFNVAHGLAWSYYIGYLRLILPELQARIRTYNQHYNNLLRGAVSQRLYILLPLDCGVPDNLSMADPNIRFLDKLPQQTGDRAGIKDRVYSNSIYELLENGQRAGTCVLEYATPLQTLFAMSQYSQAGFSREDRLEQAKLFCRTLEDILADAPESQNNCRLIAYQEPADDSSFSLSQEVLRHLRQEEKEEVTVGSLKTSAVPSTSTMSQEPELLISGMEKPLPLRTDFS

hSTING AQ = hSTING AQ (Homo sapiens, UniProt Q86WV6, G230A/H232R/R293Q); assay: Surface plasmon resonance, hSTING AQ; assay type: binding; conditions: read-out: hSTING AQ SPR (Kd)
Chain of hSTING AQ (Q86WV6 whole entry G230A/H232R/R293Q): as the sequence (Q86WV6 whole entry H232R) above, with G230A, R293Q counted along it

hSTING H232 [1] = target: T2, hSTING H232 (Homo sapiens, UniProt Q86WV6); assay: Surface plasmon resonance, hSTING H232; assay type: binding; conditions: read-out: hSTING H232 SPR (Kd)
T2 sequence (Q86WV6 whole entry): as the sequence (Q86WV6 whole entry H232R) above, with R232H counted along it

[2] = test system: TROP2 positive NCI-H292 Cells; assay: Cytokine release from cancer cells (MSD); assay type: cell-based, human; conditions: 120 hours; for EC50: Homo sapiens
Experimental: The cell supernatant was collected and IP-10 and IL-6 released in the cell culture medium was measured using Streptavidin single spot 96 well plates, compatible human antibody pairs, and calibrating solutions commercially available from MesoScale Discovery. Raw data generated by the Meso Scale Discovery (MSD®) SQ120 plate reader was imported into MSD Discovery Workbench software. Unknown sample values were interpolated from standard curves by the software and imported into Graphpad Prism. Each cytokine level was fitted with non-linear regression analysis, using log (agonist) vs. response, variable slope, 4-parameter fit equation in GraphPad Prism.

mSTING = target: T3, mSTING (Mus musculus, UniProt Q3TBT3); assay: THP1-Dual KI-mSTING reporter assay; assay type: cell-based; set-up: host or cells: THP1-Dual KI-mSTING (from THP1-Dual KO-STING); conditions: THP1-Dual KI-mSTING cells, 24 hours; read-out: Reporter assay EC50 (nM) THP-1 mSTING
T3 sequence (Q3TBT3 1-378): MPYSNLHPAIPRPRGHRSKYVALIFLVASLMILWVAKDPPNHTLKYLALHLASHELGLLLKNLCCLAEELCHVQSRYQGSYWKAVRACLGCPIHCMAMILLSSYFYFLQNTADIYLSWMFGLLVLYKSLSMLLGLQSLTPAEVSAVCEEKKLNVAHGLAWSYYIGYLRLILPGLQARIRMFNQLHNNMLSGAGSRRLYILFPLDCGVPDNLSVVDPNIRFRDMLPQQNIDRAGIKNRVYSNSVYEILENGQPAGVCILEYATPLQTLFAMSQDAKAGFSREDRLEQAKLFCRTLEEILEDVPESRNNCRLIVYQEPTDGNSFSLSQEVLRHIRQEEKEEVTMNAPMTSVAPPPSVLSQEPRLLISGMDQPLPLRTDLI

hSTING H232 [3] = target: T2, hSTING H232; assay: THP1-Dual KI-hSTING-H232 reporter assay (IRF pathway, secreted Lucia luciferase); assay type: cell-based; set-up: host or cells: THP1-Dual KI-hSTING-H232 (from THP1-Dual KO-STING); conditions: THP1-Dual KI-hSTING-H232 cells, 24 hours; read-out: Reporter assay EC50 (nM) THP-1-H232

CCn1nc(C)cc1C(=O)Nc1nc2cc(C(N)=O)cc(OC)c2n1C/C=C/Cn1c(NC(=O)c2cc(C)nn2CC)nc2cc(C(N)=O)cc(OCCCN3CCC(c4nnc5n4CCNC5)CC3)c21 [Compound 4, 1-[(E)-4-[5-carbamoyl-2-[(2-ethyl-5-methyl-pyrazole-3-carbonyl)amino]-7-[3-[4-(5,6,7,8-tetrahydro-[1,2,4]triazolo[4,3-a]pyrazin-3-yl)-1-piperidyl]propoxy]benzimidazol-1-yl]but-2-enyl]-2-[(2-ethyl-5-methyl-pyrazole-3-carbonyl)amino]-7-methoxy-benzimidazole-5-carboxamide; 2,2,2-trifluoroacetic acid]
EC50 (hSTING-R232): 50 to 150 nM
Kd (hSTING AQ): ≤ 20 nM
Kd (hSTING H232 [1]): ≤ 20 nM
IL-6 Release Span [2]: >8000 pg/mL
IP-10 Release Span [2]: >4000 pg/mL
EC50 ([2]; read-out: IL-6 Release EC50): > 100 nM
EC50 ([2]; read-out: IP-10 Release EC50): > 100 nM
EC50 (mSTING): > 150 nM
EC50 (hSTING H232 [3]): > 150 nM
